According to patent US7915276B2, “Berberrubine derivatives having antifungal activities” (priority 2006, dated 2011):

What was measured:
[1] = biological target: T1, chitin synthase 1 of Candida albicans chs2 Δ chs 3 Δ (Candida albicans, UniProt P23316); test: In vitro enzyme assay for chitin synthase 1 of Candida albicans (enzyme 1); format: biochemical; conditions: relative to polyoxin D (50% inhibitory activity = value 5)
T1 construct: Crude enzyme was prepared using the Candida albicans chs2 Δ chs 3 Δ mutant; endogenous in cells; host or cells: Candida albicans chs2Δ/chs2Δ chs3Δ/chs3Δ mutant; 130,000 x g membrane pellet
Summary of the method: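 Trypsin-activated crude membrane chitin synthase 1 from C. albicans chs2Δ chs3Δ was incubated 90 min at 30 °C with 1.1 mM UDP-[14C]GlcNAc and 2 mM cobalt acetate in Tris-HCl pH 7.5. Filtered TCA precipitate was counted by scintillation; values are scores 1–8 against polyoxin D (5 = same concentration).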

[2] = system: Candida albicans A207 (clinical isolate); test: In vitro antifungal activity (MIC), NCCLS method; format: cell-based; conditions: 48 hours
Description: (§1) Candida albicans ATCC 10231, Candida lusitaniae ATCC 42720, Candida krusei ATCC 6258, Candida tropicalis ATCC 13803, Candida glabrata ATCC 48435, Candida parapsilosis ATCC 34136, Cryptococcus neoformans ATCC 36556, Aspergillus fumigatus ATCC 16424, Aspergillus flavus ATCC 64025, Aspergillus terreus ATCC 46941 and Mucor ramosissimus ATCC 90286 strains for the MIC (minimum inhibitory concentration) measurement were obtained from ATCC (American Type Culture Collection) in the U.S. The Candida albicans A207(clinical isolate) strain was used by isolating it from the patients.
(§2) The determination of MIC was performed according to the NCCLS (National Committee for Clinical Laboratory Standard) method. Each test sample solution was diluted two-fold and inoculated with a fungal suspension to reach a final inoculum size of 5×10^2 to 2.5×10^3 cell/mL. The Cryptococcus neoformans strain was cultured in the RPMI 1640 medium for 72 hours. Other strains were cultured for 48 hours.

[3] = system: Cryptococcus neoformans ATCC 36556; test: In vitro antifungal activity (MIC), NCCLS method; format: cell-based; conditions: RPMI 1640 medium, 72 hours
Description: as §1, §2

[4] = system: Candida albicans ATCC 10231; test: In vitro antifungal activity (MIC), NCCLS method; format: cell-based; conditions: 48 hours
Description: as §1, §2

Candida krusei ATCC 6258 = test: In vitro antifungal activity (MIC), NCCLS method; format: cell-based; conditions: 48 hours
Description: as §1, §2

[5] = system: Aspergillus terreus ATCC 46941; test: In vitro antifungal activity (MIC), NCCLS method; format: cell-based; conditions: 48 hours
Description: as §1, §2

[6] = system: Aspergillus fumigatus ATCC 16424; test: In vitro antifungal activity (MIC), NCCLS method; format: cell-based; conditions: 48 hours
Description: as §1, §2

[7] = system: Candida parapsilosis ATCC 34136; test: In vitro antifungal activity (MIC), NCCLS method; format: cell-based; conditions: Candida parapsilosis ATCC 34136; 48 hours
Description: as §1, §2

[8] = system: Mucor ramosissimus ATCC 90286; test: In vitro antifungal activity (MIC), NCCLS method; format: cell-based; conditions: 48 hours
Description: as §1, §2

[9] = system: Candida tropicalis ATCC 13803; test: In vitro antifungal activity (MIC), NCCLS method; format: cell-based; conditions: 48 hours
Description: as §1, §2

[10] = system: Aspergillus flavus ATCC 64025; test: In vitro antifungal activity (MIC), NCCLS method; format: cell-based; conditions: 48 hours
Description: as §1, §2

[11] = system: Candida glabrata ATCC 48435; test: In vitro antifungal activity (MIC), NCCLS method; format: cell-based; conditions: Candida glabrata ATCC 48435; 48 hours
Description: as §1, §2

[12] = system: Candida lusitaniae ATCC 42720; test: In vitro antifungal activity (MIC), NCCLS method; format: cell-based; conditions: 48 hours
Description: as §1, §2

[13] = biological target: T2, chitin synthase 2 of Saccharomyces cerevisiae ECY38-38A(pAS6) (Saccharomyces cerevisiae, UniProt P14180); test: In vitro enzyme assay for chitin synthase 2 of Saccharomyces cerevisiae (enzyme 2); format: biochemical; conditions: relative to polyoxin D (50% inhibitory activity = value 5)
T2 construct: made in house; host or cells: Saccharomyces cerevisiae ECY38-38A (chs1-23 chs2::LEU2 cal1/csd2) carrying plasmid pAS6, grown in galactose medium; 130,000 x g membrane pellet
Summary of the method: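 Values are scores: 5 means 50% inhibition at the same concentration as polyoxin D, lower scores 2- to 16-fold higher concentration, higher scores ½ to ⅛. Radiolabel from 1.1 mM UDP-[14C]-GlcNAc was incorporated into TCA-insoluble chitin over 90 min at 30 °C (pH 7.5 Tris, 2 mM Co2+). The enzyme was a trypsin-activated membrane fraction from CHS2-only S. cerevisiae ECY38-38A(pAS6).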

T2 sequence (P14180 whole entry): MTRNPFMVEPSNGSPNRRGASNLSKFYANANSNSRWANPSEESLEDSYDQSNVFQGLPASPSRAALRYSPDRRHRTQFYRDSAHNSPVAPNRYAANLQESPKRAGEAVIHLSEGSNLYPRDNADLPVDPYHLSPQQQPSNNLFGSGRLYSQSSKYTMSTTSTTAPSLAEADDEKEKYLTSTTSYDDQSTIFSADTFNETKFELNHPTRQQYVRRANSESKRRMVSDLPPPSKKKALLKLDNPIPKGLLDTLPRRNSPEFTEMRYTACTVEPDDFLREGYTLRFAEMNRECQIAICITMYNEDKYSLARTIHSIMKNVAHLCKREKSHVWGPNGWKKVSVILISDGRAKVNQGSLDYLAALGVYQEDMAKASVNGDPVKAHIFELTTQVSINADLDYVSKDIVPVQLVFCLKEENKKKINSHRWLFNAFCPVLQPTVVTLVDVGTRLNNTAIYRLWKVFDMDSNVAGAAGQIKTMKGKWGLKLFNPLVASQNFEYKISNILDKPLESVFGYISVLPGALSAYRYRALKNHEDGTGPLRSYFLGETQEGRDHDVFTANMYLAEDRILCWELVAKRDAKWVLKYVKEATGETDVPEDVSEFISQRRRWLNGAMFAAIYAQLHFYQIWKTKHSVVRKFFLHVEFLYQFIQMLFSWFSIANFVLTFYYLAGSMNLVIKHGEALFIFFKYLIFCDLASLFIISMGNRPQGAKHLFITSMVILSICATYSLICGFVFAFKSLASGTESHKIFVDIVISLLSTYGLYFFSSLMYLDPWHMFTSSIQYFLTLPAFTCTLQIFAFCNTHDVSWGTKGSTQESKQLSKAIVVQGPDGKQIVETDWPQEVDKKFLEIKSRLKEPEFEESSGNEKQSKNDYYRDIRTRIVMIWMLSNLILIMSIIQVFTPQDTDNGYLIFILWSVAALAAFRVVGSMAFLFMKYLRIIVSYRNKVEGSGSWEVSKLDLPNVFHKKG
T1 sequence (P23316 whole entry, stated change not applied): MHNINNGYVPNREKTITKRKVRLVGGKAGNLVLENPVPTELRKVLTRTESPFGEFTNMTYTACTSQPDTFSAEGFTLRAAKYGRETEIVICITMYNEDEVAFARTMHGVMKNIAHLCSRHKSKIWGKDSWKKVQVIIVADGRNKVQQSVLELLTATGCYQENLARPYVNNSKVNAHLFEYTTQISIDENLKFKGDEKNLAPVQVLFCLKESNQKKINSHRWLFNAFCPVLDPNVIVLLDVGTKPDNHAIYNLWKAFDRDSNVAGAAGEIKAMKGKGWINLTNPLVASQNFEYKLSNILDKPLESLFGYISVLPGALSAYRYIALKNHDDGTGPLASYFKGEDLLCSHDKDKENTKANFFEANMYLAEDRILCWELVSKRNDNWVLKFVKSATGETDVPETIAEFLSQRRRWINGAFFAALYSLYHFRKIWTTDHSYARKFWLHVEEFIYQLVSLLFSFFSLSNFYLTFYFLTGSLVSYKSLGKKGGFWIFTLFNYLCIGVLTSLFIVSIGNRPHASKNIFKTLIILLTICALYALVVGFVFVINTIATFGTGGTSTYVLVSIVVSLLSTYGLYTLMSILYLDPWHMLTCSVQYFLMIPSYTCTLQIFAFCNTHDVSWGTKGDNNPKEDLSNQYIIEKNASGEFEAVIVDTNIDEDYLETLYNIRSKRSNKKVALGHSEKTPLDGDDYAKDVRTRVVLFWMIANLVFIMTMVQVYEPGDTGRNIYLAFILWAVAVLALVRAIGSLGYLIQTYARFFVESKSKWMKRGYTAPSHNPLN

Row | Substance | Relative activity Enzyme 1 [1] | MIC (minimum inhibitory concentration) [2] [µg/mL] | MIC (minimum inhibitory concentration) [3] [µg/mL] | MIC (minimum inhibitory concentration) [4] [µg/mL] | MIC (minimum inhibitory concentration) (Candida krusei ATCC 6258) [µg/mL] | MIC (minimum inhibitory concentration) [5] [µg/mL] | MIC (minimum inhibitory concentration) [6] [µg/mL] | MIC (minimum inhibitory concentration) [7] [µg/mL] | MIC (minimum inhibitory concentration) [8] [µg/mL] | MIC (minimum inhibitory concentration) [9] [µg/mL] | MIC (minimum inhibitory concentration) [10] [µg/mL] | MIC (minimum inhibitory concentration) [11] [µg/mL] | MIC (minimum inhibitory concentration) [12] [µg/mL] | Relative activity Enzyme 2 [13]
1 | 13-(4-Isopropylbenzyl)-9-O-allylberberrubine iodide [Compound No. 23] | 2 (Compounds having the inhibitory activity at 2-fold, 4-fold, 8-fold and 16-fold higher concentrations than that of polyoxin D were given the values of 4, 3, 2 and 1, respectively) | 1 | 2 | 1 | 2 | 8 | 8 | 4 | 4 | 1 | 8 | 8 | 2 | 5 (A compound having the same inhibitory activity as that of polyoxin D at the same concentration was given the value 5)
2 | 13-(4-Isopropylbenzyl)-9-O-crotylberberrubine bromide [Compound No. 24] | 2 (Compounds having the inhibitory activity at 2-fold, 4-fold, 8-fold and 16-fold higher concentrations than that of polyoxin D were given the values of 4, 3, 2 and 1, respectively) | 0.5 | 1 | 0.5 | 1 | 4 | 2 | 4 | 4 | 0.5 | 8 | 4 | 1 | 5 (A compound having the same inhibitory activity as that of polyoxin D at the same concentration was given the value 5)
3 | 13-(4-Isopropylbenzyl)-9-O-hexylberberrubine chloride [Compound No. 51] | 3 (Compounds having the inhibitory activity at 2-fold, 4-fold, 8-fold and 16-fold higher concentrations than that of polyoxin D were given the values of 4, 3, 2 and 1, respectively) | 0.25 | 0.5 | 0.25 | 1 | 8 | 2 | 2 | 4 | 0.125 | 8 | 2 | 0.5 | 6 (compounds having the inhibitory activity at ½, ¼ and ⅛ lower concentrations than that of polyoxin D were given the values of 6, 7 and 8, respectively)
4 | 13-(4-Isopropylbenzyl)-9-O-hexylberberrubine iodide [Compound No. 19] | 4 (Compounds having the inhibitory activity at 2-fold, 4-fold, 8-fold and 16-fold higher concentrations than that of polyoxin D were given the values of 4, 3, 2 and 1, respectively) | 0.25 | 1 | 0.25 | 1 | 8 | 2 | 2 | 4 | 0.125 | 8 | 2 | 1 | 6 (compounds having the inhibitory activity at ½, ¼ and ⅛ lower concentrations than that of polyoxin D were given the values of 6, 7 and 8, respectively)
